{
  "source": "the supplement of paper PMC10307832",
  "assay_in_all_cases": "relative viability (nuclei count vs DMSO), 5 days (fraction); higher = more cells survive",
  "key": {"EMC-BAC-2": {"system": "EMC-BAC-2", "how_it_was_run": "(§1)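 Medians of duplicate plates are given as relative viability. That measure is the nuclei count in treated wells divided by the count in vehicle wells. Counts were taken on 4× images of lung cancer cell lines in 1536-well plates, 5 days after pin-tool dosing the day after seeding with one drug alone or a fixed anchor-drug dose plus five library-drug doses (not always all listed) in √10 steps.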"}, "NCI-H2009": {"system": "NCI-H2009", "how_it_was_run": "as §1"}, "NCI-H727": {"system": "NCI-H727", "how_it_was_run": "as §1"}, "NCI-H1993": {"system": "NCI-H1993", "how_it_was_run": "as §1"}, "EPLC-272H": {"system": "EPLC-272H", "how_it_was_run": "as §1"}, "NCI-H1915": {"system": "NCI-H1915", "how_it_was_run": "as §1"}, "LXF-289": {"system": "LXF-289", "how_it_was_run": "as §1"}, "NCI-H2023": {"system": "NCI-H2023", "how_it_was_run": "as §1"}, "NCI-H2347": {"system": "NCI-H2347", "how_it_was_run": "as §1"}, "NCI-H647": {"system": "NCI-H647", "how_it_was_run": "as §1"}, "HOP-62": {"system": "HOP-62", "how_it_was_run": "as §1"}, "NCI-H2126": {"system": "NCI-H2126", "how_it_was_run": "as §1"}, "LCLC-97TM1": {"system": "LCLC-97TM1", "how_it_was_run": "as §1"}, "NCI-H322M": {"system": "NCI-H322M", "how_it_was_run": "as §1"}, "NCI-H2085": {"system": "NCI-H2085", "how_it_was_run": "as §1"}, "NCI-H1734": {"system": "NCI-H1734", "how_it_was_run": "as §1"}, "NCI-H1563": {"system": "NCI-H1563", "how_it_was_run": "as §1"}, "PC-14": {"system": "PC-14", "how_it_was_run": "as §1"}, "SW 1573": {"system": "SW 1573", "how_it_was_run": "as §1"}, "NCI-H661": {"system": "NCI-H661", "how_it_was_run": "as §1"}, "SK-LU-1": {"system": "SK-LU-1", "how_it_was_run": "as §1"}, "H3255": {"system": "H3255", "how_it_was_run": "as §1"}},
  "data": [
    {"smiles": "COc1nc(C)cnc1NS(=O)(=O)c1cccnc1-c1ccc(-c2nnco2)cc1", "note": "[Zibotentan] + Cc1nc(Nc2ncc(C(=O)Nc3c(C)cccc3Cl)s2)cc(N2CCN(CCO)CC2)n1 [Dasatinib] (partner 0.075 µM)", "values": [
      {"measurement": "relative viability", "setting": "EMC-BAC-2; first compound 0.08 µM", "value": 0.338},
      {"measurement": "relative viability", "setting": "EMC-BAC-2; first compound 0.8 µM", "value": 0.295},
      {"measurement": "relative viability", "setting": "EMC-BAC-2; first compound 2.53 µM", "value": 0.369},
      {"measurement": "relative viability", "setting": "NCI-H2009; first compound 0.08 µM", "value": 0.287},
      {"measurement": "relative viability", "setting": "NCI-H2009; first compound 0.253 µM", "value": 0.28},
      {"measurement": "relative viability", "setting": "NCI-H2009; first compound 0.8 µM", "value": 0.306},
      {"measurement": "relative viability", "setting": "NCI-H2009; first compound 2.53 µM", "value": 0.292},
      {"measurement": "relative viability", "setting": "NCI-H727; first compound 0.08 µM", "value": 0.333},
      {"measurement": "relative viability", "setting": "NCI-H727; first compound 0.253 µM", "value": 0.251},
      {"measurement": "relative viability", "setting": "NCI-H727; first compound 0.8 µM", "value": 0.279},
      {"measurement": "relative viability", "setting": "NCI-H727; first compound 2.53 µM", "value": 0.372},
      {"measurement": "relative viability", "setting": "NCI-H1993; first compound 0.08 µM", "value": 0.565},
      {"measurement": "relative viability", "setting": "NCI-H1993; first compound 0.253 µM", "value": 0.63},
      {"measurement": "relative viability", "setting": "NCI-H1993; first compound 0.8 µM", "value": 0.481},
      {"measurement": "relative viability", "setting": "NCI-H1993; first compound 2.53 µM", "value": 0.741},
      {"measurement": "relative viability", "setting": "EPLC-272H; first compound 0.08 µM", "value": 0.375},
      {"measurement": "relative viability", "setting": "EPLC-272H; first compound 0.253 µM", "value": 0.287},
      {"measurement": "relative viability", "setting": "EPLC-272H; first compound 0.8 µM", "value": 0.331},
      {"measurement": "relative viability", "setting": "EPLC-272H; first compound 2.53 µM", "value": 0.33},
      {"measurement": "relative viability", "setting": "NCI-H1915; first compound 0.08 µM", "value": 0.382},
      {"measurement": "relative viability", "setting": "NCI-H1915; first compound 0.253 µM", "value": 0.29},
      {"measurement": "relative viability", "setting": "NCI-H1915; first compound 0.8 µM", "value": 0.336},
      {"measurement": "relative viability", "setting": "NCI-H1915; first compound 2.53 µM", "value": 0.29},
      {"measurement": "relative viability", "setting": "LXF-289; first compound 0.08 µM", "value": 0.247},
      {"measurement": "relative viability", "setting": "LXF-289; first compound 0.253 µM", "value": 0.22},
      {"measurement": "relative viability", "setting": "LXF-289; first compound 0.8 µM", "value": 0.206},
      {"measurement": "relative viability", "setting": "LXF-289; first compound 2.53 µM", "value": 0.244},
      {"measurement": "relative viability", "setting": "NCI-H2023; first compound 0.08 µM", "value": 0.568},
      {"measurement": "relative viability", "setting": "NCI-H2023; first compound 0.253 µM", "value": 0.339},
      {"measurement": "relative viability", "setting": "NCI-H2023; first compound 0.8 µM", "value": 0.476},
      {"measurement": "relative viability", "setting": "NCI-H2023; first compound 2.53 µM", "value": 0.64},
      {"measurement": "relative viability", "setting": "NCI-H2347; first compound 0.253 µM", "value": 0.294},
      {"measurement": "relative viability", "setting": "NCI-H2347; first compound 0.8 µM", "value": 0.298},
      {"measurement": "relative viability", "setting": "NCI-H2347; first compound 2.53 µM", "value": 0.331},
      {"measurement": "relative viability", "setting": "NCI-H647; first compound 0.08 µM", "value": 0.145},
      {"measurement": "relative viability", "setting": "NCI-H647; first compound 0.253 µM", "value": 0.185},
      {"measurement": "relative viability", "setting": "NCI-H647; first compound 0.8 µM", "value": 0.215},
      {"measurement": "relative viability", "setting": "NCI-H647; first compound 2.53 µM", "value": 0.195},
      {"measurement": "relative viability", "setting": "HOP-62; first compound 0.08 µM", "value": 0.706},
      {"measurement": "relative viability", "setting": "HOP-62; first compound 0.253 µM", "value": 0.634},
      {"measurement": "relative viability", "setting": "HOP-62; first compound 0.8 µM", "value": 0.719},
      {"measurement": "relative viability", "setting": "HOP-62; first compound 2.53 µM", "value": 0.758},
      {"measurement": "relative viability", "setting": "NCI-H2126; first compound 0.08 µM", "value": 0.632},
      {"measurement": "relative viability", "setting": "NCI-H2126; first compound 0.8 µM", "value": 0.53},
      {"measurement": "relative viability", "setting": "NCI-H2126; first compound 2.53 µM", "value": 0.685},
      {"measurement": "relative viability", "setting": "LCLC-97TM1; first compound 0.08 µM", "value": 0.823},
      {"measurement": "relative viability", "setting": "LCLC-97TM1; first compound 0.253 µM", "value": 0.841},
      {"measurement": "relative viability", "setting": "LCLC-97TM1; first compound 0.8 µM", "value": 0.882},
      {"measurement": "relative viability", "setting": "LCLC-97TM1; first compound 2.53 µM", "value": 0.861},
      {"measurement": "relative viability", "setting": "NCI-H322M; first compound 0.08 µM", "value": 0.235},
      {"measurement": "relative viability", "setting": "NCI-H322M; first compound 0.253 µM", "value": 0.245},
      {"measurement": "relative viability", "setting": "NCI-H322M; first compound 0.8 µM", "value": 0.27},
      {"measurement": "relative viability", "setting": "NCI-H322M; first compound 2.53 µM", "value": 0.269},
      {"measurement": "relative viability", "setting": "NCI-H2085; first compound 0.08 µM", "value": 0.24},
      {"measurement": "relative viability", "setting": "NCI-H2085; first compound 0.253 µM", "value": 0.227},
      {"measurement": "relative viability", "setting": "NCI-H2085; first compound 0.8 µM", "value": 0.211},
      {"measurement": "relative viability", "setting": "NCI-H2085; first compound 2.53 µM", "value": 0.213},
      {"measurement": "relative viability", "setting": "NCI-H1734; first compound 0.08 µM", "value": 0.484},
      {"measurement": "relative viability", "setting": "NCI-H1734; first compound 0.253 µM", "value": 0.42},
      {"measurement": "relative viability", "setting": "NCI-H1734; first compound 0.8 µM", "value": 0.487},
      {"measurement": "relative viability", "setting": "NCI-H1734; first compound 2.53 µM", "value": 0.564},
      {"measurement": "relative viability", "setting": "NCI-H1563; first compound 0.08 µM", "value": 0.493},
      {"measurement": "relative viability", "setting": "NCI-H1563; first compound 0.253 µM", "value": 0.435},
      {"measurement": "relative viability", "setting": "NCI-H1563; first compound 0.8 µM", "value": 0.476},
      {"measurement": "relative viability", "setting": "NCI-H1563; first compound 2.53 µM", "value": 0.397},
      {"measurement": "relative viability", "setting": "PC-14; first compound 0.08 µM", "value": 0.26},
      {"measurement": "relative viability", "setting": "PC-14; first compound 0.253 µM", "value": 0.172},
      {"measurement": "relative viability", "setting": "PC-14; first compound 0.8 µM", "value": 0.243},
      {"measurement": "relative viability", "setting": "PC-14; first compound 2.53 µM", "value": 0.277},
      {"measurement": "relative viability", "setting": "SW 1573; first compound 0.08 µM", "value": 0.565},
      {"measurement": "relative viability", "setting": "SW 1573; first compound 0.8 µM", "value": 0.537},
      {"measurement": "relative viability", "setting": "SW 1573; first compound 2.53 µM", "value": 0.556},
      {"measurement": "relative viability", "setting": "NCI-H661; first compound 0.08 µM", "value": 0.924},
      {"measurement": "relative viability", "setting": "NCI-H661; first compound 0.253 µM", "value": 0.805},
      {"measurement": "relative viability", "setting": "NCI-H661; first compound 0.8 µM", "value": 0.943},
      {"measurement": "relative viability", "setting": "NCI-H661; first compound 2.53 µM", "value": 0.939},
      {"measurement": "relative viability", "setting": "SK-LU-1; first compound 0.08 µM", "value": 0.17},
      {"measurement": "relative viability", "setting": "SK-LU-1; first compound 0.253 µM", "value": 0.172},
      {"measurement": "relative viability", "setting": "SK-LU-1; first compound 0.8 µM", "value": 0.189},
      {"measurement": "relative viability", "setting": "SK-LU-1; first compound 2.53 µM", "value": 0.198},
      {"measurement": "relative viability", "setting": "H3255; first compound 0.08 µM", "value": 0.406},
      {"measurement": "relative viability", "setting": "H3255; first compound 0.253 µM", "value": 0.311},
      {"measurement": "relative viability", "setting": "H3255; first compound 0.8 µM", "value": 0.632},
      {"measurement": "relative viability", "setting": "H3255; first compound 2.53 µM", "value": 0.325}
    ]}
  ]
}
